In patent US11261186B2, “Biaryl derivative as GPR120 agonist” (LG CHEM, LTD., priority 2014, dated 2022):

Target: T1, hGPR120 (Homo sapiens, UniProt Q5NUL3)
T1 construct: expressed in transfected cells; host or cells: CHO-K1
T1 sequence (Q5NUL3 1-361): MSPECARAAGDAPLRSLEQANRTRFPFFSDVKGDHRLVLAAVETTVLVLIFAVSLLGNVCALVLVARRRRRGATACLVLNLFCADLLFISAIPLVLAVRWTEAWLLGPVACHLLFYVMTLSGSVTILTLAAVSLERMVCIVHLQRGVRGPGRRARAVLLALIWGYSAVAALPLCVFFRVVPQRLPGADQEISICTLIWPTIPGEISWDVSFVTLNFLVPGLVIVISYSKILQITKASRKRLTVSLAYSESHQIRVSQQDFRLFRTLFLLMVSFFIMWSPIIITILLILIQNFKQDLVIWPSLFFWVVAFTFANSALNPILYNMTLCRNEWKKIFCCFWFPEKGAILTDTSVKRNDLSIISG
Experiment: Measurement of Activity of GPR120 Agonist (Cell-Based Assay), Calcium 5 dye fluorescence
Settings: CHO-K1 cells expressing Ga16 and hGPR120
Protocol: CHO-K1 cells expressing Ga16 and hGPR120 were dispensed into each well of a 96-well plate (3×10^4 cells/100 μl/well) and then incubated in 5% CO2, 37° C. incubator for 18 hours. Each well was treated with 100 μl of Calcium 5 dye (Molecular Devices) solution including 2% DMSO and then incubated in 5% CO2, 37° C. incubator for 1 hour. Serially diluted GPR120 agonists were prepared to a final concentration of 0.5% DMSO in a 96-well plate. Each well was treated with 50 μl of the agonist compounds using Plexstation II, and then fluorescence was measured at Ex 485 nm and Em 525 nm.
Fluorescence increased by the serially diluted GPR120 agonists is calculated as a relative percent (%) value based on the fluorescence represented by the treatment of 1% DMSO only. […] The calculation of measurement was carried out by using statistical software (Prizm).
Activity is denoted based on the following criteria: […]

| SMILES | EC50 [nM] |
| --- | --- |
| CN(CCCC(=O)O)c1c(F)cc(-c2cc(Cl)cc3c2OC(C)(C)C3)cc1F [Example 255, 4-{[4-(5-chloro-2,2-dimethyl-2,3-dihydro-benzofuran-7-yl)-2,6-difluoro-phenyl]-methyl-amino}-butyric acid] | < 200 |
| O=C(O)CCCSc1ccc(-c2cccc3c2OC(F)(F)O3)cc1 [Example 155, 4-[4-(2,2-difluoro-benzo[1,3]dioxol-4-yl)-phenylsulfanyl]-butyric acid] | < 200 |
| O=C(O)CCC1CCc2cc(-c3cccnc3OC3CCCC3)ccc2S1 (centres unmarked) [Example 271, 3-[6-(2-cyclopentoxy-pyridin-3-yl)-thiochroman-2-yl]-propionic acid] | < 200 |
| CC(C)Sc1cccc(-c2ccc3nc(CCC(=O)O)ccc3c2)n1 [Example 2, 3-[6-(6-isopropylsulfanyl-pyridin-2-yl)-quinolin-2-yl]-propionic acid] | 200 to 2000 |
| CC(C)Sc1cccc(-c2cc(F)c(C(C)CCCC(=O)O)c(F)c2)n1 (centres unmarked) [Example 53, 5-[2,6-difluoro-4-(6-isopropylsulfanyl-2-pyridyl)-phenyl]hexanoic acid] | < 200 |
| O=C(O)CC1CCN(c2c(F)cc(-c3nccc(Oc4ccc(C(F)(F)F)cc4)n3)cc2F)CC1 [Example 610, 2-[1-[2,6-difluoro-4-[4-[4-(trifluoromethyl)phenoxy]pyrimidin-2-yl]phenyl]-4-piperidyl]acetic acid] | 200 to 2000 |
| O=C(O)CC1CN(c2c(F)cc(-c3cncc(OCC4CC4)n3)cc2F)C1 [Example 335, 2-[1-[4-[6-(cyclopropylmethoxy)pyrazin-2-yl]-2,6-difluoro-phenyl]azetidin-3-yl]acetic acid] | < 200 |
| CCCSc1ncccc1-c1ccc(CCCc2noc(=O)[nH]2)cc1 [Example 63, 3-[3-[4-(2-propylsulfanyl-3-pyridyl)phenyl]propyl]-4H-1,2,4-oxadiazol-5-one] | 2000 to 20000 |
| O=C(O)CCCCc1ccc(-c2cccnc2SC2CCC2)cc1F [Example 249, 5-[4-(2-cyclobutylsulfanyl-pyridin-3-yl)-2-fluoro-phenyl]-pentanoic acid] | < 200 |
| O=C(O)CC1CCN(c2c(F)cc(-n3ccc4cccc(Cl)c43)cc2F)CC1 [Example 481, 2-[1-[4-(7-chloroindol-1-yl)-2,6-difluoro-phenyl]-4-piperidyl]acetic acid] | 2000 to 20000 |
| O=C(O)CCC1CC1c1c(F)cc(-c2cccnc2SC2CCCC2)cc1F (centres unmarked) [Example 182, 3-{2-[4-(2-cyclopentylsulfanyl-pyridin-3-yl)-2,6-difluoro-phenyl]-cyclopropyl}-propanoic acid] | < 200 |
| CC(CCCC(=O)O)c1c(F)cc(-c2cccnc2OC2CCC2)cc1F (centres unmarked) [Example 59, 5-[4-(2-cyclobutoxy-3-pyridyl)-2,6-difluoro-phenyl]hexanoic acid] | < 200 |
| O=C(O)CC1CCN(c2c(F)cc(-c3cccc(C(=O)C4CC4)n3)cc2F)CC1 [Example 312, 2-[1-[4-[6-(cyclopropanecarbonyl)-2-pyridyl]-2,6-difluoro-phenyl]-4-piperidyl]acetic acid] | 200 to 2000 |
| COc1cncc(-c2cc(F)c(N3CCC(CC(=O)O)C3)c(F)c2)n1 (centres unmarked) [Example 584, {1-[2,6-difluoro-4-(6-methoxy-pyrazin-2-yl)-phenyl]-pyrrolidin-3-yl}-acetic acid] | 200 to 2000 |
| O=C(O)CCC1CCc2cc(-c3cccnc3OC3CCC3)ccc2O1 (centres unmarked) [Example 277, 3-[6-(2-cyclobutoxy-pyridin-3-yl)-chroman-2-yl]-propionic acid] | 200 to 2000 |
| O=C(O)CCC1CC1c1c(F)cc(-c2cccnc2NC2CCCC2)cc1F (centres unmarked) [Example 183, 3-{2-[4-(2-cyclopentylamino-pyridin-3-yl)-2,6-difluoro-phenyl]-cyclopropyl}-propanoic acid] | < 200 |
| Cc1cc(OC2CCC2)nc(-c2cc(F)c(N3CC(CC(=O)O)C3)c(F)c2)n1 [Example 328, 2-[1-[4-[4-(cyclobutoxy)-6-methyl-pyrimidin-2-yl]-2,6-difluoro-phenyl]azetidin-3-yl]acetic acid] | 200 to 2000 |
| CC(C)Oc1cccc(-c2cc(F)c(OCc3cc(O)no3)c(F)c2)n1 [Example 71, 5-[[2,6-difluoro-4-(6-isopropoxy-2-pyridyl)phenoxy]methyl]isoxazol-3-ol] | < 200 |
| CC(C)Nc1cncc(-c2cc(F)c(N3CCC(CC(=O)O)CC3)c(F)c2)n1 [Example 354, 2-[1-[2,6-difluoro-4-[6-(isopropylamino)pyrazin-2-yl]phenyl]-4-piperidyl]acetic acid] | 200 to 2000 |
| O=C(O)CC1CN(c2c(F)cc(-c3cccc(OCC4CC4)n3)cc2F)C1 [Example 322, 2-[1-[4-[6-(cyclopropylmethoxy)-2-pyridyl]-2,6-difluoro-phenyl]azetidin-3-yl]acetic acid] | < 200 |
| Cc1cc(OC(C)C)nc(-c2cc(F)c(N3CCC(CC(=O)O)C3)c(F)c2)n1 (centres unmarked) [Example 587, {1-[2,6-difluoro-4-(4-isopropoxy-6-methyl-pyrimidin-2-yl)-phenyl]-pyrrolidin-3-yl}-acetic acid] | 200 to 2000 |
| O=C(O)CC1CCN(c2c(F)cc(-c3cccc(SC4CCC4)n3)cc2F)CC1 [Example 297, 2-[1-[4-(6-cyclobutylsulfanyl-2-pyridyl)-2,6-difluoro-phenyl]-4-piperidyl]acetic acid] | 200 to 2000 |
| O=C(O)CCC1CCc2cc(-c3cccc(OC4CCCC4)n3)ccc2O1 (centres unmarked) [Example 9, 3-[6-(6-cyclopentyloxy-pyridin-2-yl)-chroman-2-yl]-propionic acid] | < 200 |
| O=C(O)CC1CCN(c2c(F)cc(-c3cccc(OC4CCC4)n3)cc2Cl)CC1 [Example 319, 2-[1-[2-chloro-4-[6-(cyclobutoxy)-2-pyridyl]-6-fluoro-phenyl]-4-piperidyl]acetic acid] | 200 to 2000 |
| CN(Cc1cc(O)no1)c1ccc(-c2cccc(OC3CCC3)n2)cc1 [Example 417, 5-({[4-(6-cyclobutoxy-pyridin-2-yl)-phenyl]-methyl-amino}-methyl)-isoxazol-3-ol] | < 200 |

Now from value to molecule:

| EC50 [nM] | SMILES |
| --- | --- |
| 200 to 2000 | CCN(CCCC(=O)O)c1c(F)cc(-c2cccnc2OC(C)C)cc1F [Example 226, 4-{[2,6-difluoro-4-(2-isopropoxy-pyridin-3-yl)-phenyl]-ethyl-amino}-butyric acid] |
| < 200 | O=C(O)CCCOc1c(F)cc(-c2occc2COCC2CC2)cc1F [Example 387, 4-[4-[3-(cyclopropylmethoxymethyl)-2-furyl]-2,6-difluoro-phenoxy]butanoic acid] |
| < 200 | O=C(O)CCCOc1c(F)cc(-c2ccc(F)c(OCC3CC3)c2)cc1Cl [Example 408, 4-(5-chloro-3′-cyclopropylmethoxy-3,4′-difluoro-biphenyl-4-yloxy)-butyric acid] |
| < 200 | O=C(O)CCCOc1c(F)cc(-n2ccc3c(F)cccc32)cc1F [Example 471, 4-[2,6-difluoro-4-(4-fluoroindol-1-yl)phenoxy]butanoic acid] |
| 200 to 2000 | COC(=O)N1c2c(cc(F)cc2-c2cc(F)c(OCCCC(=O)O)c(F)c2)CC1(C)C [Example 265, 7-[4-(3-carboxy-propoxy)-3,5-difluoro-phenyl]-5-fluoro-2,2-dimethyl-2,3-dihydro-indol-1-carboxylic acid methyl ester] |
| 2000 to 20000 | O=C(O)CCCOc1c(F)cc(-c2cccc(OCc3ccccc3)c2)cc1F [Example 17, 4-(3′-benzyloxy-3,5-difluoro-biphenyl-4-yloxy)-butyric acid] |
| < 200 | O=C(O)CCCOc1c(F)cc(-n2ccc3ccc(OCC4CC4)cc32)cc1F [Example 474, 4-[4-[6-(cyclopropylmethoxy)indol-1-yl]-2,6-difluoro-phenoxy]butanoic acid] |
| < 200 | O=C(O)CCCOc1c(F)cc(-n2ccc3cc(F)ccc32)cc1F [Example 465, 4-[2,6-difluoro-4-(5-fluoroindol-1-yl)phenoxy]butanoic acid] |
| < 200 | O=C(O)CCCOc1c(F)cc(-c2cccc(OCC3CCC3)c2)cc1F [Example 521, 4-(3′-cyclobutylmethoxy-3,5-difluoro-biphenyl-4-yloxy)-butyric acid] |
| 200 to 2000 | CC(C)Sc1cccc(-c2cc(F)c(NCCCCC(=O)O)c(F)c2)n1 [Example 96, 5-[2,6-difluoro-4-(6-isopropylsulfanyl-2-pyridyl)anilino]pentanoic acid] |
| < 200 | CN(CCCC(=O)O)c1c(F)cc(-c2cccc(OC3CCCC3)n2)cc1F [Example 204, 4-{[4-(6-cyclopentyloxy-pyridin-2-yl)-2,6-difluoro-phenyl]-methyl-amino}-butyric acid] |
| < 200 | Cc1cc(OCC2CC2)nc(-c2cc(F)c(OCCCC(=O)O)c(Cl)c2)c1 [Example 435, 4-[2-chloro-4-(6-cyclopropylmethoxy-4-methyl-pyridin-2-yl)-6-fluoro-phenoxy]-butyric acid] |
| < 200 | O=C(O)CCCCc1c(F)cc(-c2cccnc2OCC2CC2)cc1F [Example 252, 5-[4-(2-cyclopropylmethoxy-pyridin-3-yl)-2,6-difluoro-phenyl]-pentanoic acid] |
